Test results from ChEMBL document CHEMBL4190379 (Bioorg Med Chem Lett, 2018).

Legend:
[1] = AUC in mouse at 10 mg/kg, po; type: ADME, organism-based; conditions: in vivo
OPM-2 [2] = experiment: Antitumor activity against human OPM2 cells xenografted in SCID-beige mouse assessed as inhibition of tumor growth administered once daily orally for 28 days starting from 18 days post tumor inoculation; type: functional, cell-based
Mus musculus [3] = experiment: Toxicity in human OPM2 cells xenografted SCID-beige mouse assessed as body weight loss at 3.75 mg/kg, po qd administered for 28 days starting from 18 days post tumor inoculation; type: organism-based; conditions: in vivo
[4] = target: Bromodomain-containing protein 3 (Homo sapiens, UniProt Q15059); experiment: Binding affinity to BRD3 bromodomain 1 to 2 (P24 to P416 amino acids) (unknown origin) using Alexa647-labeled BET-inhibitor as fluorescent probe by bromodomain TR-FRET binding assay
Chain of Bromodomain-containing protein 3 (Q15059 whole entry, the tested form may be a part): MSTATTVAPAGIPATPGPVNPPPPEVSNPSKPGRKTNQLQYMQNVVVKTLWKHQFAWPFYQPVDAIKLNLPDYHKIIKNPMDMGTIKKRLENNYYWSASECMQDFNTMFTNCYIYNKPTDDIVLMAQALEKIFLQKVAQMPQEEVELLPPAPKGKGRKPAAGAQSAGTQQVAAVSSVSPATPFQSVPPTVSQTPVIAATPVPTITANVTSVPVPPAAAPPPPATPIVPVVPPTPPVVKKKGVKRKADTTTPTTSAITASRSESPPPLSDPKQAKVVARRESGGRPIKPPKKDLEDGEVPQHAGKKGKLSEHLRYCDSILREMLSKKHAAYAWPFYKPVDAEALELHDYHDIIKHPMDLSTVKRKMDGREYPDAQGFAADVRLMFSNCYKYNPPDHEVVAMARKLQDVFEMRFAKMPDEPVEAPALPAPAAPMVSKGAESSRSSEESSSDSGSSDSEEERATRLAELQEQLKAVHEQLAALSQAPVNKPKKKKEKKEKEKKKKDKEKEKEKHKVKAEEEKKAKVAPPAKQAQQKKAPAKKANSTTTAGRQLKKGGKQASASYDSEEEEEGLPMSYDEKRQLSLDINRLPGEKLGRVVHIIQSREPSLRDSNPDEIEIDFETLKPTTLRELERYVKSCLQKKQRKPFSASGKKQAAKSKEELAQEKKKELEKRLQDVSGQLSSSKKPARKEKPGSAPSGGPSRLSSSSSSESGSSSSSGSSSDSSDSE

Peregrin (Homo sapiens) = target: T1, Peregrin (Homo sapiens) (UniProt P55201); experiment: Binding affinity to human BRPF1 expressed in bacterial system assessed as remaining binding level at 1 uM by BROMOscan assay relative to control
T1 sequence (whole entry): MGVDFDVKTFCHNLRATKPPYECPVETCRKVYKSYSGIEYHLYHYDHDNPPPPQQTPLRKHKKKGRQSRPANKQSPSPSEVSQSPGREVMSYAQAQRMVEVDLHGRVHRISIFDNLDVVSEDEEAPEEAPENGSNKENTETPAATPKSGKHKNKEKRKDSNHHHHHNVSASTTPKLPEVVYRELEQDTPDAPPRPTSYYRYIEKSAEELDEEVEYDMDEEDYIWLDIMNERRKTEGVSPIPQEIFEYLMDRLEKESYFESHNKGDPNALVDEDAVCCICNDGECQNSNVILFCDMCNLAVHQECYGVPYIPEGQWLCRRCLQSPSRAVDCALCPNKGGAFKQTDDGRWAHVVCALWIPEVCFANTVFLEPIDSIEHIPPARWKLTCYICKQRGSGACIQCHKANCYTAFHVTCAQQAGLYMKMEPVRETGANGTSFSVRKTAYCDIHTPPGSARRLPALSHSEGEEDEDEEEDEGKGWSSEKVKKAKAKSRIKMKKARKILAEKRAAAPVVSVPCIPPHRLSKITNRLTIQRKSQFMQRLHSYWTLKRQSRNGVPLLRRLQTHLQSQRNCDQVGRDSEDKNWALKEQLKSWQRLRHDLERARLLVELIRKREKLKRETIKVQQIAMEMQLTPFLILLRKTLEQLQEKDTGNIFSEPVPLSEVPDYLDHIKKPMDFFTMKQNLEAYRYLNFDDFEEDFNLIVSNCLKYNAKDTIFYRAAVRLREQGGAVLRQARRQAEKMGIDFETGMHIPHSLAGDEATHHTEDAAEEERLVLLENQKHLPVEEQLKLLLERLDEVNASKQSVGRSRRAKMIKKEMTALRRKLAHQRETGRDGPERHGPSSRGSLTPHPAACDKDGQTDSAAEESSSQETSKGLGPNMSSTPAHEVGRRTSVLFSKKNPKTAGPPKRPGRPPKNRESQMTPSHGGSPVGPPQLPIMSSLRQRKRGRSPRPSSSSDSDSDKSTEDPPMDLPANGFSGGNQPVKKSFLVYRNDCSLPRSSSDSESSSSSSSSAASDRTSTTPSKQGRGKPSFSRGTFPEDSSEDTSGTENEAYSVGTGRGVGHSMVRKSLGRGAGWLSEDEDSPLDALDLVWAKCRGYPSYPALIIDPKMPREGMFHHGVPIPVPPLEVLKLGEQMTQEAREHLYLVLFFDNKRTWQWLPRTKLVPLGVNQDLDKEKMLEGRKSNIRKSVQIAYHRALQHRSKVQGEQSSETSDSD

Mus musculus [5] = experiment: Toxicity in human OPM2 cells xenografted SCID-beige mouse assessed as body weight loss at 7.5 mg/kg, po qd administered for 28 days starting from 18 days post tumor inoculation; type: organism-based; conditions: in vivo
OPM-2 [6] = experiment: Antitumor activity against human OPM2 cells xenografted in SCID-beige mouse assessed as inhibition of tumor growth at 7.5 mg/kg, po qd administered for 28 days starting from 18 days post tumor inoculation; type: functional; conditions: OPM-2, po, read-out: TGI
OPM-2 [7] = experiment: Antitumor activity against human OPM2 cells xenografted in SCID-beige mouse assessed as inhibition of tumor growth at 3.75 mg/kg, po qd administered for 28 days starting from 18 days post tumor inoculation; type: functional; conditions: OPM-2, po, read-out: TGI
OPM-2 [8] = experiment: Antitumor activity against human OPM2 cells xenografted in SCID-beige mouse assessed as inhibition of tumor growth at 0.62 mg/kg, po qd administered for 28 days starting from 18 days post tumor inoculation; type: functional; conditions: OPM-2, po, read-out: TGI
Mus musculus [9] = experiment: Toxicity in human OPM2 cells xenografted SCID-beige mouse assessed as body weight loss at 0.31 mg/kg, po qd administered for 28 days starting from 18 days post tumor inoculation; type: organism-based; conditions: in vivo
Mus musculus [10] = experiment: Toxicity in human OPM2 cells xenografted SCID-beige mouse assessed as morbidity at 0.31 mg/kg, po qd administered for 28 days starting from 18 days post tumor inoculation; type: organism-based; conditions: in vivo
Mus musculus [11] = experiment: Toxicity in human OPM2 cells xenografted SCID-beige mouse assessed as body weight loss at 0.62 mg/kg, po qd administered for 28 days starting from 18 days post tumor inoculation; type: organism-based; conditions: in vivo
Mus musculus [12] = experiment: Dose normalized AUC in mouse at 1 mg/kg, po; type: ADME, organism-based; conditions: in vivo
OPM-2 [13] = experiment: Antitumor activity against human OPM2 cells xenografted in SCID-beige mouse assessed as inhibition of tumor growth at 0.31 mg/kg, po qd administered for 28 days starting from 18 days post tumor inoculation; type: functional; conditions: OPM-2, po, read-out: TGI

| SMILES | AUC [1] | TGI (OPM-2 [2]) | Activity (Mus musculus [3]) | Ki [4] | Activity (Peregrin (Homo sapiens)) | Activity (Mus musculus [5]) | inhibition in vivo at 7.5 mg/kg (OPM-2 [6]) | inhibition in vivo at 3.75 mg/kg (OPM-2 [7]) | inhibition in vivo at 0.62 mg/kg (OPM-2 [8]) | Activity (Mus musculus [9]) | Activity (Mus musculus [10]) | Activity (Mus musculus [11]) | AUC/dose (Mus musculus [12]) | inhibition in vivo at 0.31 mg/kg (OPM-2 [13]) |
| --- | --- | --- | --- | --- | --- | --- | --- | --- | --- | --- | --- | --- | --- | --- |
| Cn1cc2c3c(c[nH]c(=O)c31)-c1cc(CS(C)(=O)=O)ccc1N(c1ccc(F)cc1)C2 | 2.8 µM·h | Dose-dependent effect | 10% | 17 nM | 69% | 9% | 84% | 68% | – | – | – | – | – | – |
| Cn1cc2c3c(c[nH]c3c1=O)CN(c1ccc(F)cc1F)c1ccc(CS(C)(=O)=O)cc1-2 | 12 µM·h | – | – | 10 nM | 14% | – | – | – | – | – | – | – | – | – |
| Cn1cc2c3c(c[nH]c3c1=O)CN(c1ccccn1)c1ccc(CS(C)(=O)=O)cc1-2 | – | Dose-dependent effect | – | 10 nM | 1.2% | – | – | – | 94% | 0% | Non-Toxic | 5% | 3.5 µM·h | 60% |
